# Results: US20130072899A1, “Pharmaceutical Formulations for Iontophoretic Delivery of Gallium” (Nitric BloTherapeutics, Inc., priority 2008, published 2013)
# Values joined by “and” are separate entries in the source; they are usually repeats but may differ in a detail not shown here. Equal entries are not always repeated. Where two headings read alike, the source gives them in different places.
# Key:
# [1] = for specific binding affinity of human full thickness skin for gallium (mean): mean of samples A-E, nitrate hydrate
# Description: Ten minutes of 400 μA iontophoresis was applied to all of the cells and 0.5 mL samples were removed after 0, 24, 28, 42, 65 and 70 h and replaced with receiver fluid. […] Samples of 0.5 mL were removed for LC ion-exchange assay after 0, 24, 28, 42, 52 and 70 h and replaced with receiver fluid. […] The skin samples were then finely sliced using scissors, chilled and homogenised for five minutes using a T10 Ultra-Turax homogeniser (IKA works, Staufen, Germany) using 30 second pulses. The scalpel, scissors, forceps and homogeniser blades were washed through using 10 mL of PDCA mobile phase concentrate as the extractant. […] The skin-PDCA concentrate homogenate was allowed to mix for a further 24 h before being filtered using 0.45 μm, 30 mm cellulose acetate syringe filters (Orange Scientific, Braine l'Alleud, Belgium).
# [2] = Effect of speciation and ITP on gallium deposition within full thickness human skin; type: in vitro ADME
# Description: An infinite dose skin deposition study was performed using full thickness human skin. Small Franz cells were constructed as previously described and the mass of skin section recorded. The Franz cells were set up with a receiver fluid of 0.05 M citric acid buffer (pH 5.0) and allowed to equilibrate for one hour. Donor solutions were prepared and 0.5 mL of each added to the appropriate Franz cell donor compartment. Each cell was subjected to either 60 min of ITP or an equivalent period of passive permeation. The cells were sacrificed after cither 60 min (directly after ITP, n=8) or after 25 h (24 h of permeation, n=8). […] The skin samples were removed and reweighed. […] The skin samples were then finely sliced using scissors, chilled and homogenised for five minutes using a T10 Ultra-Turax homogeniser (IKA werks, Staufen, Germany) using 30 second pulses. The scalpel blade, scissors, forceps and homogeniser blades were washed into the homogenate using PDCA mobile phase (five times concentrate) to minimise drug loss from the method. The skin-PDCA concentrate homogenate was allowed to mix for a further 24 h before being filtered using 0.45 μm, 30 mm cellulose acetate syringe filters (Orange Scientific, Braine l'Alleud, Belgium).
# [3] = Infinite dose mass balance study, gallium recovery from human skin; conditions: for Ga mass detected per skin surface area: nitrate hydrate
# Description: An infinite dose mass balance study was performed using full thickness human skin. Small Franz cells were set up as previously described and the mass and thickness of skin section recorded. […] Cells were then treated with either […] iontophoresis or received no iontophoresis (n=6 for each). […] The skin samples were removed and reweighed.
# (Cells dismantled after 0 and 60 h post iontophoresis).
# [4] = Gallium permeation through full thickness human skin, Franz cells (effect of concentration and iontophoresis duration); type: in vitro ADME; conditions: for Amount of Ga detected in receiver after 70 h / Steady state Ga flux: nitrate hydrate; for increase in gallium permeation compared to passive cells: 16.7% w/v, 70 h
# Description: Human full thickness skin was stored in the same fashion as the epidermal sheet (Example 3), and a similar Franz cell assembly technique was adopted. The effect of concentration was investigated by applying 16.7, 1.5 and 0.15 % w/v gallium solutions in pH 5.0 citric acid buffer to the donor compartment (0.8 mL). Ten minutes of 400 μA iontophoresis was applied to all of the cells and 0.5 mL samples were removed after 0, 24, 28, 42, 65 and 70 h and replaced with receiver fluid. The gallium in the samples was assayed using the LC ion-exchange method. […] Samples of 0.5 mL were removed for LC ion-exchange assay after 0, 24, 28, 42, 52 and 70 h and replaced with receiver fluid. […] Gallium solutions containing 2.4, 1.6, 0.79, 0.395 and 0.1975 mg of gallium in 20 μL of water were applied to the stratum corneum of the skin samples using a positive displacement pipette (Eppendorf, Cambridge, UK). The samples were then left for 24 h to allow the gallium to permeate the skin. The skin samples were then finely sliced using scissors, chilled and homogenised for five minutes using a T10 Ultra-Turax homogeniser (IKA works, Staufen, Germany) using 30 second pulses. The scalpel, scissors, forceps and homogeniser blades were washed through using 10 mL of PDCA mobile phase concentrate as the extractant. The PDCA concentrate (pH 4.2) was freshly made every week by weighing approximately 5.8 g PDCA, 18.5 g potassium hydroxide, 4.9 g potassium sulphate and 17.0 g of formic acid into a 1000 mL volumetric and making up to volume with DiH2O. The skin-PDCA concentrate homogenate was allowed to mix for a further 24 h before being filtered using 0.45 μm, 30 mm cellulose acetate syringe filters (Orange Scientific, Braine l'Alleud, Belgium). The gallium in the remaining solution was assayed using the LC ion-exchange method. The binding affinity was calculated by subtracting the amount of gallium recovered by the extraction from the amount applied to the skin, in order to gain the amount of gallium still bound to skin in the homogenate. This figure was then divided by the mass of the skin sample to calculate the amount of gallium bound per gram of skin.
# [5] = Sample D, Ga delivered 0.395 mg
# [6] = Sample E, Ga delivered 0.1975 mg
# [7] = Ionto (400 μA, 60 min) 0 h, 1.5% w/v
# [8] = Ionto (400 μA, 60 min) 60 h, 1.5% w/v
# [9] = 0.15% w/v, iontophoresis 10 min, 400 μA, listed as Ga
# [10] = 1.5% w/v, iontophoresis 10 min, 400 μA, listed as Ga
# [11] = 16.67% w/v, iontophoresis 0 min (passive), listed as Ga
# [12] = 16.67% w/v, iontophoresis 0 min (passive)
# [13] = 16.67% w/v, iontophoresis 10 min, 400 μA, listed as Ga
# [14] = 16.67% w/v, iontophoresis 10 min, 400 μA, listed as gallium
# [15] = 16.67% w/v, iontophoresis 60 min, 400 μA, listed as Ga
# [16] = 16.67% w/v, iontophoresis 60 min, 400 μA
smiles,measurement,setting,value
"O=[N+]([O-])[O-].O=[N+]([O-])[O-].O=[N+]([O-])[O-].[Ga+3] [gallium nitrate, Gallium (III) nitrate hydrate]",% Ga recovery,"[1]; Sample A, Ga delivered 2.4 mg",97.1%
same,Binding,"[1]; Sample A, Ga delivered 2.4 mg",0.138 mg/g
same,Ga bound to skin,"[1]; Sample A, Ga delivered 2.4 mg",0.07 mg
same,Ga recovered,"[1]; Sample A, Ga delivered 2.4 mg",2.33 mg
same,% Ga recovery,"[1]; Sample B, Ga delivered 1.6 mg",92.5%
same,Binding,"[1]; Sample B, Ga delivered 1.6 mg",0.178 mg/g
same,Ga bound to skin,"[1]; Sample B, Ga delivered 1.6 mg",0.12 mg
same,Ga recovered,"[1]; Sample B, Ga delivered 1.6 mg",1.48 mg
same,% Ga recovery,"[1]; Sample C, Ga delivered 0.79 mg",87.3%
same,Binding,"[1]; Sample C, Ga delivered 0.79 mg",0.193 mg/g
same,Ga bound to skin,"[1]; Sample C, Ga delivered 0.79 mg",0.1 mg
same,Ga recovered,"[1]; Sample C, Ga delivered 0.79 mg",0.69 mg
same,% Ga recovery,[1]; [5],73.4%
same,Binding,[1]; [5],0.197 mg/g
same,Ga bound to skin,[1]; [5],0.105 mg
same,Ga recovered,[1]; [5],0.29 mg
same,% Ga recovery,[1]; [6],60.8%
same,Binding,[1]; [6],0.151 mg/g
same,Ga bound to skin,[1]; [6],0.0775 mg
same,Ga recovered,[1]; [6],0.12 mg
same,specific binding affinity of human full thickness skin for gallium (mean),[1]; listed as Ga,0.171 mg/g
same,specific binding affinity of human full thickness skin for gallium (mean),[1],0.17 ± 0.03 mg/g
same,gallium skin deposition,"0.15% in 0.05M citrate buffer, pH 2, cathodal 0.3 mA/cm^2 15 min",277.90 ± 51.24 ng/mg
same,gallium skin deposition,"0.15% in 0.05M citrate buffer, pH 3, cathodal 0.3 mA/cm^2 15 min",113.16 ± 17.65 ng/mg
same,gallium skin deposition,"0.15% in 0.05M citrate buffer, pH 4, cathodal 0.3 mA/cm^2 15 min",60.5 ± 21.11 ng/mg
same,gallium skin deposition,"0.15% in 0.05M citrate buffer, pH 6, cathodal 0.3 mA/cm^2 15 min",51.16 ± 6.65 ng/mg
same,maximum skin deposition expressed as concentration,"16.6% gallium nitrate in 1M citrate at pH 8, 0.3 mA/cm^2 for 15 min",0.78 mg/mL
same,gallium skin deposition,"16.6% in 0.1 M citrate buffer, pH 2, anodal",91.74 ± 13.09 ng/mg
same,gallium skin deposition,"16.6% in 0.1 M citrate buffer, pH 4, anodal",74.42 ± 22.31 ng/mg
same,gallium skin deposition,"16.6% in 0.1 M citrate buffer, pH 6, anodal",62.19 ± 23.76 ng/mg
same,gallium skin deposition,"16.6% in 0.1 M citrate buffer, pH 6, cathodal",99.62 ± 36.44 ng/mg
same,gallium skin deposition,"16.6% in 1M citrate buffer, pH 6, cathodal",163.72 ± 36.72 ng/mg
same,gallium skin deposition,"16.6% in 1M citrate buffer, pH 7, cathodal",250.49 ± 39.76 ng/mg
same,gallium skin deposition,"16.6% in 1M citrate buffer, pH 8, cathodal, nitrate hydrate",329.52 ± 36.10 ng/mg and 330 ng/mg
same,ITP Ga skin deposition 24 h,"[2]; Anodal, 60 min ITP then 24 h",1.888±1.159 mg/cm^2
same,ITP Ga skin deposition 60 min,"[2]; Anodal, 60 min of 615 μA/cm^2 ITP",1.203±0.248 mg/cm^2
same,60 min passive skin deposition,"[2]; passive, 60 min",0.288±0.258 mg/cm^2
same,"Ga mass detected, full thickness human skin",[3]; [7],0.0788 ± 0.043 mg
same,"Ga mass detected, skin corrected for binding",[3]; [7],0.127 ± 0.043 mg
same,Ga mass detected per skin surface area,"[3]; Ionto (400 μA, 60 min) 0 h, 1.5% w/v, listed as Ga",0.200 ± 0.069 mg/cm^2
same,Ga mass detected per skin surface area,[3]; [7],0.200±0.069 mg/cm^2
same,"Ga mass detected, full thickness human skin",[3]; [8],0.328 ± 0.371 mg
same,"Ga mass detected, skin corrected for binding",[3]; [8],0.391 ± 0.373 mg
same,Ga mass detected per skin surface area,"[3]; Ionto (400 μA, 60 min) 60 h, 1.5% w/v, listed as Ga",0.617 ± 0.059 mg/cm^2
same,Ga mass detected per skin surface area,[3]; [8],0.617±0.059 mg/cm^2
same,"Ga mass detected, full thickness human skin","[3]; Passive 0 h, 1.5% w/v",0.07 ± 0.036 mg
same,"Ga mass detected, skin corrected for binding","[3]; Passive 0 h, 1.5% w/v",0.111 ± 0.035 mg
same,Ga mass detected per skin surface area,"[3]; Passive 0 h, 1.5% w/v, listed as Ga",0.178 ± 0.058 mg/cm^2
same,Ga mass detected per skin surface area,"[3]; Passive 0 h, 1.5% w/v",0.178±0.058 mg/cm^2
same,"Ga mass detected, full thickness human skin","[3]; Passive 60 h, 1.5% w/v",0.0745 ± 0.108 mg
same,"Ga mass detected, skin corrected for binding","[3]; Passive 60 h, 1.5% w/v",0.137 ± 0.109 mg
same,Ga mass detected per skin surface area,"[3]; Passive 60 h, 1.5% w/v, listed as Ga",0.221 ± 0.176 mg/cm^2
same,Ga mass detected per skin surface area,"[3]; Passive 60 h, 1.5% w/v",0.221±0.176 mg/cm^2
same,"increase in skin gallium content, iontophoretic vs passive","[3]; after 60 hours, 1.5% w/v",three fold
same,total gallium in the skin vs levels in the receiver compartment,[3]; both passive and iontophoretic cells,ten-fold higher
same,"increase in detected gallium level in the skin, iontophoresis vs passive",[3]; immediately after iontophoresis,12%
same,increase in gallium flux with 60 min iontophoresis compared to passive,[3]; receiver compartment and recovery from the skin,approximate three-fold increase
same,Amount of Ga detected in receiver after 70 h,[4]; [9],0.0028 ± 0.006 mg/cm^2
same,Steady state Ga flux,[4]; [9],0.008 μg/cm^2/h and 0.008 ± 0.005 μg/cm^2/h
same,Amount of Ga detected in receiver after 70 h,"[4]; 0.15% w/v, iontophoresis 10 min, 400 μA",0.0028±0.006 mg/cm^2
same,reduction of amount of drug permeating the skin,"[4]; 1.5% w/v vs 16.67% w/v Ga, 10 min iontophoresis",10.6%
same,Amount of Ga detected in receiver after 70 h,[4]; [10],0.044 ± 0.034 mg/cm^2
same,Steady state Ga flux,[4]; [10],0.9 μg/cm^2/h and 0.900 ± 0.695 μg/cm^2/h
same,Amount of Ga detected in receiver after 70 h,"[4]; 1.5% w/v, iontophoresis 10 min, 400 μA",0.0438±0.034 mg/cm^2
same,Amount of Ga detected in receiver after 70 h,[4]; [11],0.004 ± 0.011 mg/cm^2
same,Steady state Ga flux,[4]; [11],0.009 ± 0.003 μg/cm^2/h
same,Amount of Ga detected in receiver after 70 h,[4]; [12],0.004±0.011 mg/cm^2
same,Steady state Ga flux,[4]; [12],0.009±0.003 μg/cm^2/h
same,Amount of Ga detected in receiver after 70 h,[4]; [13],0.049 ± 0.013 mg/cm^2
same,Steady state Ga flux,[4]; [13],0.9 μg/cm^2/h and 0.900 ± 0.238 μg/cm^2/h
same,Amount of Ga detected in receiver after 70 h,[4]; [14],0.049±0.013 mg/cm^2
same,Steady state Ga flux,[4]; [14],0.9±0.238 μg/cm^2/h
same,Amount of Ga detected in receiver after 70 h,"[4]; 16.67% w/v, iontophoresis 10 min, 400 μA",0.049±0.013 mg/cm^2
same,Amount of Ga detected in receiver after 70 h,[4]; [15],0.063 ± 0.022 mg/cm^2
same,Steady state Ga flux,[4]; [15],1.300 ± 0.450 μg/cm^2/h
same,Amount of Ga detected in receiver after 70 h,[4]; [16],0.063±0.022 mg/cm^2
same,Steady state Ga flux,[4]; [16],1.3±0.450 μg/cm^2/h
same,increase in gallium permeation compared to passive cells,[4]; 10 min iontophoresis,1125%
same,increase in gallium permeation compared to passive cells,[4]; 60 min iontophoresis,1475%
